These results are taken from US20150189882A1, “ACTIVE INGREDIENT COMBINATIONS HAVING INSECTICIDAL AND ACARICIDAL PROPERTIES” (priority 2011, published 2015).

Where two headings read alike, the source gives them in different places.

For orientation: mortality means the percentage killed.

Data set [1] relates to Myzus persicae. As to the kind of experiment: whole plant or invertebrate. To be noted: in Brassica rapa, foliar, read-out: Mortality in % after 1^d.
Data set [2] concerns Tetranychus urticae (OP-resistant). In words: Tetranychus urticae - test (OP-resistant), French bean leaf discs. To be noted: for mortality at 4 g/ha: 4 g ai/ha; for mortality at 500 g/ha: 500 g ai/ha. The data set is classed as in vivo. Here is the method:
To produce a suitable preparation of active compound, 1 part by weight of active compound is mixed with the stated amount of solvent and emulsifier, and the concentrate is diluted with emulsifier-containing water to the desired concentration. To produce a suitable preparation of a biological suspension the cells or spores are diluted with emulsifier-containing water to the desired concentration.
Leaf discs of French beans (Phaseolus vulgaris) infected with all instars of the Two-spotted spider mite (Tetranychus urticae), are sprayed with a preparation of the active ingredient at the desired concentration.
After the specified period of time mortality in % is determined. 100% means that all spider mites have been killed; 0% means that none of the spider mites have been killed.

Data set [3] deals with Phaedon cochleariae larvae. As to the kind of experiment: whole plant or invertebrate.
Data set [4] relates to Spodoptera frugiperda. In words: Spodoptera frugiperda - spray application. The format is in vivo. To be noted: for mortality at 20 g/ha: 20 g ai/ha. Here is the method:
To produce a suitable preparation of active compound, 1 part by weight of active compound is mixed with the stated amount of solvent and emulsifier, and the concentrate is diluted with emulsifier-containing water to the desired concentration. To produce a suitable preparation of a biological suspension the cells, viruses or spores are diluted with emulsifier-containing water to the desired concentration.
Cabbage (Brassica oleracea) leaf-discs are sprayed with a preparation of the active ingredient at the desired concentration. Once dry, the leaf discs are infested with larvae of the fall army worm (Spodoptera frugiperda).
After the specified period of time, mortality in % is determined. 100% means that all the caterpillars have been killed; 0% means that none of the caterpillars have been killed. The mortality values thus determined are recalculated using the Colby-formula.

Setting [5] is: read-out: Mortality in % after 2^d.
The mark [6] stands for this setting: Tetranychus urticae, foliar, 0.8 g ai/ha, read-out: Mortality in % after 2^d.
[7] abbreviates: read-out: Mortality in % after 6^d.
[8] abbreviates: Tetranychus urticae, foliar, read-out: Mortality in % after 2^d.

For the compound `CC1(C)[C@H](C(=O)O[C@H](C#N)c2cccc(Oc3ccccc3)c2)[C@@H]1/C=C\C(=O)OC(C(F)(F)F)C(F)(F)F` [Acrinathrin], the mortality at 0.8 g/ha in data set [1] was 80%. Consider `CC(=O)N1C(=O)N(NCc2cccnc2)Cc2cc(C(F)(C(F)(F)F)C(F)(F)F)ccc21` [Pyrifluquinazone, Pyrifluquinazon], for which the “Mortality in % after 2^d” value in data set [2] (0.8 g ai/ha) came to 0%. On to `CN1COCN(Cc2cnc(Cl)s2)/C1=N\[N+](=O)[O-]` [Thiamethoxam], for which the mortality at 20 g/ha in data set [3] (setting [5]) is 67%. In the case of `CCN(Cc1ccc(Cl)nc1)/C(=C/[N+](=O)[O-])NC` [Nitenpyram], the mortality at 0.8 g/ha in data set [2] (setting [6]) is 0%. For the same compound, the mortality at 20 g/ha in data set [3] (setting [7]) was 0%. As to `CC1(C)[C@H](C(=O)O[C@H](C#N)c2cccc(Oc3ccccc3)c2)[C@@H]1/C=C(\Cl)C(F)(F)F` [Gamma-Cyhalothrin, gamma-Cyhalothrin], in data set [4] (0.16 g ai/ha), the “Mortality in % after 2^d” value stood at 0%. Regarding `N#C/N=C1\SCCN1Cc1ccc(Cl)nc1` [Thiacloprid], the mortality at 20 g/ha amounted to 0% in data set [4] (Spodoptera frugiperda, read-out: Mortality in % after 6^d) and 33% in data set [3] (setting [7]).

With `CC1(C)[C@H](C(=O)O[C@H](C#N)c2cccc(Oc3ccccc3)c2)[C@@H]1C=C(Br)Br` [Deltamethrin], in data set [4] (Spodoptera frugiperda, 0.032 g ai/ha, read-out: Mortality in % after 6^d), the mortality at 0.032 g/ha turned out to be 0%. Turning to `CCOCn1c(-c2ccc(Cl)cc2)c(C#N)c(Br)c1C(F)(F)F` [Chlorfenapyr], the mortality at 0.8 g/ha in data set [2] (setting [6]) was 0%. Take `N#Cc1nn(-c2c(Cl)cc(C(F)(F)F)cc2Cl)c(N)c1[S+]([O-])C(F)(F)F` (stereo not drawn) [Fipronil]: the mortality at 0.8 g/ha in data set [2] (setting [6]) was determined as 0%. The mortality at 0.16 g/ha in data set [3] (setting [5]) came to 0%. As to `O=S(=O)(CCC(F)=C(F)F)c1ncc(Cl)s1` [Fluensulfone], the “Mortality in % after 2^d” value in data set [2] (2000 g ai/ha) is 0%.

As for `O=C(NC(=O)c1ccccc1Cl)Nc1ccc(OC(F)(F)F)cc1` [Triflumuron], the mortality at 20 g/ha in data set [4] (Spodoptera frugiperda, read-out: Mortality in % after 2^d) is 0%; in data set [3] (setting [7]), 0%.

Take `Cc1c(COC(=O)[C@@H]2[C@H](/C=C(\Cl)C(F)(F)F)C2(C)C)cccc1-c1ccccc1` (racemic) [Bifenthrin]: the mortality at 0.16 g/ha in data set [4] (Spodoptera frugiperda, 0.16 g ai/ha, read-out: Mortality in % after 6^d) came to 0%. In addition, the mortality at 0.8 g/ha in data set [3] (setting [7]) turned out to be 50%. With `CCc1nn(C)c(C(=O)NCc2ccc(C(C)(C)C)cc2)c1Cl` [Tebufenpyrad], the mortality at 4 g/ha in data set [2] (setting [8]) amounted to 0%. For `CS/C(C)=N\OC(=O)N(C)SN(C)C(=O)O/N=C(\C)SC` [Thiodicarb], in data set [2] (setting [8]), the mortality at 4 g/ha is 0%. Besides, the mortality at 100 g/ha in data set [3] (setting [7]) came to 0%.

As to `O=C(NC(=O)c1c(F)cccc1F)Nc1ccc(Cl)cc1` [Diflubenzuron], in data set [4] (Spodoptera frugiperda, 100 g ai/ha, read-out: Mortality in % after 2^d), the mortality at 100 g/ha was determined as 67%. The mortality at 4 g/ha in data set [2] (setting [8]) stood at 0%. Regarding `CC1(C)C(C=C(Cl)Cl)C1C(=O)OC(C#N)c1cccc(Oc2ccccc2)c1` (stereo not drawn) [Alpha-Cypermethrin, alpha-Cypermethrin], in data set [2] (Tetranychus urticae, foliar, 0.16 g ai/ha, read-out: Mortality in % after 2^d), the mortality at 0.16 g/ha is 0%. Also, the mortality at 4 g/ha in data set [3] (setting [7]) turned out to be 0%.

On to `COC(=O)N(C(=O)N1CO[C@@]2(C(=O)OC)Cc3cc(Cl)ccc3C2=N1)c1ccc(OC(F)(F)F)cc1` [Indoxacarb], for which the “Mortality in % after 6^d” value in data set [4] (0.8 g ai/ha) is 50%. As to `CC1(C)C(C=C(Cl)Cl)C1C(=O)OC(C#N)c1cccc(Oc2ccccc2)c1` (stereo not drawn) [Cypermethrin], the mortality at 0.8 g/ha in data set [4] (Spodoptera frugiperda, 0.8 g ai/ha, read-out: Mortality in % after 6^d) was found to be 67%. Take Spinetoram: the “Mortality in % after 2^d” value in data set [2] (0.8 g ai/ha) is listed as 0%. For `C/C(=N\C#N)N(C)Cc1ccc(Cl)nc1` [Acetamiprid], in data set [3] (setting [7]), the mortality at 20 g/ha amounted to 33%. In the case of `Cc1c(F)c(F)c(COC(=O)[C@@H]2[C@H](/C=C(\Cl)C(F)(F)F)C2(C)C)c(F)c1F` (racemic) [Tefluthrin], the mortality at 0.8 g/ha in data set [2] (setting [6]) was 0%. In addition, in data set [3] (setting [7]), the mortality at 20 g/ha was found to be 50%. Regarding `Cc1ccc(C(C)C)c(O)c1` [Thymol], the mortality at 500 g/ha in data set [2] (Tetranychus urticae, foliar, read-out: Mortality in % after 6^d) came to 0%. Turning to Abamectin, the “Mortality in % after 2^d” value in data set [2] (0.032 g ai/ha) turned out to be 0%. `O=C(NC(=O)c1c(F)cccc1F)Nc1ccc(Oc2ccc(C(F)(F)F)cc2Cl)cc1F` [Flufenoxuron]: in data set [2] (setting [6]), the mortality at 0.8 g/ha was determined as 0%. Further, the mortality at 20 g/ha in data set [3] (setting [7]) amounted to 0%.

Take `CC(C)N1C(=O)N(c2ccccc2)CS/C1=N\C(C)(C)C` [Buprofezin]: the mortality at 500 g/ha in data set [2] (setting [8]) came to 0%. As to Spinosad, the “Mortality in % after 2^d” value in data set [2] (0.8 g ai/ha) was determined as 0%.
